Assay results as given in PubChem BioAssay AID2060908 (Molecular Pharmacology Branch, DTP, NCI, 2025).
Where “and” joins values, the source holds several entries; their conditions need not be identical. Identical values can stand only once.

Test system: 186277-243-T-J2-PDC complex spheroids, viability
Assay: Anticancer human tumor 186277-243-T-J2-PDC patient-derived colon adenocarcinoma cell line growth inhibition [RAS]
Settings: for viability, T/C: stronger effect = lower value
Description: RAS pathway inhibitors in Combinations in Complex Spheroids
A high-throughput screen of multi-cell type tumor spheroids was designed to identify active combinations of RAS pathway inhibitors and targeted small molecules. Complex spheroids include a stromal component modeled by human endothelial cells (HUVEC) and fibroblasts modeled by human mesenchymal stem cells (MSCs). The concentration ranges selected for each drug and investigational agent were based upon clinically achievable concentrations if the clinical Cmax of the agent was known.
Compounds. The drugs and investigational agents: abemaciclib (NSC768073), cobimetinib (NSC768068), divarasib (GDC6063, NSC841802), docetaxel (NSC628503), GDC-1971 (RLY-1971, NSC841576), gemcitabine (NSC613327), inavolisib (NSC800729), ipatasertib (NSC767898), KB-0742 (NSC834161), MRTX-1133 (NSC836407), osimertinib (NSC779217), RMC-4630 (NSC839698), RMC-6236 (NSC851965), RMC-6291 (NSC852671), Ro-3306 (NSC812927), sapanisertib (NSC764658), SN-38 (NSC673596), staurosporine (NSC755774), SY5609 (NSC837396), and tovorafenib (DAY101, NSC766906), were obtained from the National Cancer Institute (NCI) Developmental Therapeutics Program Chemical Repository. The FDA-approved anticancer drug set is available from the NCI Developmental Therapeutics Program. […] The stock solutions were prepared in dimethyl sulfoxide (DMSO, Sigma-Aldrich, St. Louis, MO, cat. D2650) at 800-fold the tested concentration and stored at -70 degrees C prior to their use. All drugs and investigational agents were tested over a range starting from a high concentration at or near the clinical Cmax and decreasing in half-log increments. If the clinical Cmax for an agent had not been determined, the highest concentration tested was 10 microM.
Cell Culture. All cells were maintained in an incubator at 37 degrees C and 5% CO2 with 95% humidity. The PDC lines were cultured according to standard operating procedures established by the NCI PDMR. All PDCs were thawed and cultured in Matrigel-coated flasks prepared with a working solution of 1X Ham's F-12 nutrient mix, without supplementation (Invitrogen, Waltham, MA, cat. 11765054), 100 U/mL penicillin-streptomycin (Invitrogen, cat. 15140122), and 2.5% Matrigel (Corning Inc., Corning, NY, cat. 354248) for the first three passages. The 362531-283-R-J2-PDC and 782815-120-R-J1-PDC lines were cultured in 6C/Colon 1B media, which includes advanced DMEM/F-12 (Thermo Fisher Scientific, cat. 12634028), 10 mM HEPES (Thermo Fisher Scientific, cat. 15630080), 1X GlutaMAX supplement (Thermo Fisher Scientific, cat. 35050061), 0.1 mg/mL primocin (InvivoGen, San Diego, CA, cat. ant-pm-2), 10% defined fetal bovine serum, heat inactivated (HyClone Laboratories Inc., Logan, UT, cat. SH30070.03HI), 50% L-WRN conditioned media (ATCC, cat. CRL-3276), 1.25 mM N-Acetyl-L-cysteine (Sigma-Aldrich, cat. A9165), 10 mM nicotinamide (Sigma-Aldrich, cat. N0636), 1X B-27 supplement (Thermo Fisher Scientific, cat. 17504044), 1X N-2 supplement (Thermo Fisher Scientific, cat. 17502048), 50 ng/mL human EGF (Thermo Fisher Scientific, cat. PHG0311), and 10 microM Y-27632 dihydrochloride (Tocris Bioscience, cat. 1254). The K12877-001-R-J1-PDC line was cultured in 6I media, which includes all 6C/Colon 1B media plus 10 ng/mL human FGF-10 (PeproTech, cat. 100-26), 1 ng/mL human FGF-2 (PeproTech, cat. 100-18B), 1 µM prostaglandin E2 (Tocris Bioscience, cat. 2296), […] hydrocortisone (Sigma-Aldrich, cat. H4001), and […] bovine insulin (Sigma-Aldrich, cat. I6634). The K86415-001-R-J1-PDC line was cultured in 6D media, which includes all 6C/Colon 1B media components minus the L-WRN conditioned media. The 485176-168-R4-J1-PDC was cultured in PANC media, which includes all 6C/Colon 1B media plus 100 ng/mL human FGF-10 (PeproTech, cat. 100-26), 500 nM SB-431542 (Selleckchem, cat. S1067), and 10 nM gastrin (Tocris Bioscience, cat. 3006). […]

[1] = compound alone, run of 06/10/2024
[2] = compound alone, run of 05/20/2024
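Note: spheroids exposed to compounds for 7 days before viability read.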

IC50 (curve of compound) | SMILES | viability, T/C (compound 0.0316 µM) | viability, T/C (compound 0.1 µM) | viability, T/C (compound 0.316 µM) | viability, T/C (compound 1 µM) | viability, T/C (compound 3.16 µM) | viability, T/C (compound 10 µM) | further results
> 1000 nM | C=CC(=O)N1CCN(c2nc(OCC3CCCN3C)nc3c(F)c(-c4nc(N)cc(C)c4C(F)(F)F)c(Cl)cc23)C(C)C1 (centres undefined) | 100% [middle of 12 runs] | – | – | – | – | – | IC50 [1]: > 1000 nM
2.59 µM [middle of 4 runs] | CC(C)NCC(C(=O)N1CCN(c2ncnc3c2C(C)CC3O)CC1)c1ccc(Cl)cc1 (centres undefined) | 86% [middle of 4 runs] | 89.2% [middle of 4 runs] | 97.7% [middle of 4 runs] | 68.8% [middle of 4 runs] | 48% [middle of 4 runs] | 32.2% [middle of 4 runs] | –
> 300 nM and 287 nM and 197 nM | CC1(C)CCC(Nc2ncc(C(F)(F)F)c(-c3c[nH]c4c(P(C)(C)=O)c(C#N)ccc34)n2)CN1 (centres undefined) | – | – | – | – | – | – | viability, T/C (compound 0.000949 µM): 89.9% [middle of 4 runs]; viability, T/C (compound 0.003 µM): 102% and 101% (2×) and 97%; viability, T/C (compound 0.00949 µM): 99.2% [middle of 4 runs]; viability, T/C (compound 0.0949 µM): 60.8% and 56.4% (2×) and 71.4%; viability, T/C (compound 0.3 µM): 63.9% [middle of 4 runs]
4.81 µM [middle of 4 runs] | CC1(O)CCCC1n1c(=O)c(C(F)F)cc2cnc(NC3CCN(S(C)(=O)=O)CC3)nc21 (centres undefined) | 108% [middle of 4 runs] | 114% [middle of 4 runs] | – | – | 83.6% [middle of 4 runs] | 2.71% [middle of 4 runs] | –
3.81 nM [middle of 4 runs] | Nc1ccn(C2OC(CO)C(O)C2(F)F)c(=O)n1 (centres undefined) | 12% [middle of 4 runs] | 12.9% [middle of 4 runs] | 10.6% [middle of 4 runs] | 12.1% [middle of 4 runs] | – | – | viability, T/C (compound 0.00316 µM): 57.2% [middle of 4 runs]; viability, T/C (compound 0.01 µM): 12.7% [middle of 4 runs]
79.7 nM [middle of 4 runs] | O=C(c1ccc(F)c(F)c1Nc1ccc(I)cc1F)N1CC(O)([C@@H]2CCCCN2)C1 | 94.1% [middle of 4 runs] | 39.6% [middle of 4 runs] | 9.71% [middle of 4 runs] | 5.17% [middle of 4 runs] | – | – | viability, T/C (compound 0.00316 µM): 102% [middle of 4 runs]; viability, T/C (compound 0.01 µM): 93.3% [middle of 4 runs]

The remaining lines, values behind:

SMILES | IC50 (curve of compound) | viability, T/C (compound 0.0316 µM) | viability, T/C (compound 0.1 µM) | viability, T/C (compound 0.316 µM) | viability, T/C (compound 1 µM) | viability, T/C (compound 3.16 µM) | viability, T/C (compound 10 µM) | further results
C#Cc1c(F)ccc2cc(O)cc(-c3ncc4c(N5CC6CCC(C5)N6)nc(OCC56CCCN5CC(F)C6)nc4c3F)c12 (centres undefined) | – | 70% [middle of 8 runs] | 62.6% [middle of 8 runs] | 32.4% [middle of 8 runs] | 18.4% [middle of 8 runs] | 12.2% [middle of 8 runs] | 10.1% [middle of 8 runs] | IC50 [1]: 160 nM [middle of 8 runs]
C=CC(=O)Nc1cc(Nc2nccc(-c3cn(C)c4ccccc34)n2)c(OC)cc1N(C)CCN(C)C | > 1000 nM | 93.3% [middle of 4 runs] | 99.4% [middle of 4 runs] | 94.8% [middle of 4 runs] | – | – | – | viability, T/C (compound 0.00316 µM): 91.2% [middle of 4 runs]
CC(=O)OC12COC1CC(O)C1(C)C(=O)C(O)C3=C(C)C(OC(=O)C(O)C(NC(=O)OC(C)(C)C)c4ccccc4)CC(O)(C(OC(=O)c4ccccc4)C21)C3(C)C (centres undefined) | < 31.6 nM | 8.57% [middle of 4 runs] | 7.52% [middle of 4 runs] | 7.03% [middle of 4 runs] | 6.22% [middle of 4 runs] | 5.95% [middle of 4 runs] | 6.14% [middle of 4 runs] | –
CC(C)n1nc(-c2ccc3oc(N)nc3c2)c2c(N)ncnc21 | – | – | 47.7% [middle of 4 runs] | – | – | – | – | viability, T/C (compound 0.000316 µM): 107% [middle of 4 runs]; viability, T/C (compound 0.001 µM): 96.7% [middle of 4 runs]; viability, T/C (compound 0.00316 µM): 101% and 98% and 107% (2×); viability, T/C (compound 0.01 µM): 92.9% [middle of 4 runs]
CC(Nc1ccc2c(c1)OCCn1cc(N3C(=O)OCC3C(F)F)nc1-2)C(N)=O (centres undefined) | – | 102% (2×) and 76.1% and 98.5% | 91.8% [middle of 4 runs] | 69.5% [middle of 4 runs] | 51.2% [middle of 4 runs] | – | 34.3% [middle of 4 runs] | –
CCC(CC)c1cc(NC2CCC(N)C2)n2nccc2n1 (centres undefined) | 1.77 µM [middle of 4 runs] | 98.2% [middle of 4 runs] | 94.7% [middle of 4 runs] | 90.1% [middle of 4 runs] | 91.8% [middle of 4 runs] | 5.37% [middle of 4 runs] | 0.37% [middle of 4 runs] | –
CCN1CCN(Cc2ccc(Nc3ncc(F)c(-c4cc(F)c5nc(C)n(C(C)C)c5c4)n3)nc2)CC1 | > 1000 nM | – | 127% [middle of 4 runs] | – | – | – | – | viability, T/C (compound 0.01 µM): 102% (3×) and 98.7%
CCc1c2c(nc3ccc(O)cc13)-c1cc3c(c(=O)n1C2)COC(=O)[C@]3(O)CC | – | – | – | – | – | – | – | viability, T/C (compound 0.00949 µM): 71.8% [middle of 4 runs]; viability, T/C (compound 0.03 µM): 47.5% [middle of 4 runs]; viability, T/C (compound 0.0949 µM): 18.6% [middle of 4 runs]; viability, T/C (compound 0.3 µM): 15.9% [middle of 4 runs]
CCn1c(-c2cc(N3CCN(C)CC3)cnc2C(C)OC)c2c3cc(ccc31)-c1csc(n1)CC(NC(=O)C1CC1C)C(=O)N1CCCC(N1)C(=O)OCC(C)(C)C2 (centres undefined) | – | – | – | – | – | – | – | viability, T/C (compound 0.000949 µM): 105% [middle of 8 runs]; viability, T/C (compound 0.00949 µM): 55.2% [middle of 8 runs]; viability, T/C (compound 0.03 µM): 15.2% [middle of 8 runs]; viability, T/C (compound 0.0949 µM): 7.7% [middle of 7 runs]; viability, T/C (compound 0.3 µM): 6.43% [middle of 8 runs]; IC50 [2]: 10.4 nM [middle of 8 runs]
CCn1c(-c2cccnc2C(C)OC)c2c3cc(ccc31)N1CCOC(CC(NC(=O)C(C(C)C)N(C)C(=O)C3(F)CCN(C(=O)C#CC(C)(C)N(C)C)CC3)C(=O)N3CCCC(N3)C(=O)OCC(C)(C)C2)C1 (centres undefined) | – | – | – | – | – | – | – | viability, T/C (compound 0.000949 µM): 96.7% [middle of 8 runs]; viability, T/C (compound 0.003 µM): 96.3% [middle of 8 runs]; viability, T/C (compound 0.03 µM): 102% [middle of 8 runs]; viability, T/C (compound 0.3 µM): 103% [middle of 8 runs]; IC50 [2]: > 300 nM
C[C@@H](NC(=O)c1ncnc(N)c1Cl)c1ncc(C(=O)Nc2cc(C(F)(F)F)c(Cl)cn2)s1 | > 10000 nM | 99.8% [middle of 4 runs] | 93.7% [middle of 4 runs] | 102% [middle of 4 runs] | 91.9% [middle of 4 runs] | 104% [middle of 4 runs] | 79.8% [middle of 4 runs] | –
Cc1nc(N2CCC3(CC2)COC(C)C3N)c(CO)nc1Sc1ccnc(N)c1Cl (centres undefined) | > 10000 nM | 101% [middle of 4 runs] | – | 107% [middle of 4 runs] | 110% (2×) and 105% and 119% | 119% (2×) and 105% and 91.9% | – | –
NC1c2ccccc2OC12CCN(c1cnc3c(N4CCCc5ncccc54)n[nH]c3n1)CC2 (centres undefined) | > 10000 nM | – | – | 99.6% [middle of 4 runs] | – | – | 73.3% [middle of 4 runs] | –
